Data as given in US20070185104A1, “Benzoxazole acetonitriles” (APPLIED RESEARCH SYSTEMS ARS HOLDING N.V., priority 2003, published 2007).

What was measured:
[1] = target: human GSK3 beta (Homo sapiens, UniProt P49841); experiment: GSK3β in vitro assay (33P-ATP phosphorylation of phospho GS2 peptide); assay type: biochemical; details: In vitro potency on human GSK3 beta; read-out: IC50 (μM) GSK3beta
Protocol: GSK3β Assay (see Bioorg. Med. Chem. Lett by Naerum et al. 12 p. 1525-1528 (2002))
In a final reaction volume of 25 μl, GSK3β (h) (5-10 mU) is incubated with 8 mM MOPS pH 7.0, 0.2 mM EDTA, 20 μM […](p)EDEEE (being the GSK3 substrate; a phospho GS2 peptide), 10 mM Mg Acetate and [γ-^33P-ATP] (Specific activity approx. 500 cpm/pmol, concentration as required). The reaction is initiated by the addition of Mg^2+ [γ-^33P-ATP]. After incubation for 40 minutes at room temperature, the reaction is stopped by the addition of 5 μl of a 3% phosphoric acid solution. 10 μl of the reaction is then spotted onto a P30 filtermat and washed three times for 5 minutes in 50 mM phosphoric acid and once in methanol prior to drying and the degree of phosphorylation of the substrate is determined by scintillation counting.

[2] = system: db/db mice; experiment: Experimental model of type II diabetes (oral postprandial glycemia in db/db mice); assay type: in vivo; details: p.o. 50 mg/kg, compared to vehicle Group 1
Protocol: b) In vivo Assay: Experimental Model of Type II Diabetes (Oral Postprandial Glycemia in db/db Mice)
The following assay aims at determining the anti-diabetic effect of the test compounds of formula (I) in a model of postprandial glycemia in db/db mice, in vivo.
The assay was performed as follows:
A total of 24 db/db mice (about 8-9 weeks; obtained from IFFACREDO, l'Arbreste, France) were fasted during 20 hours.
2 groups, each consisting of 6 animals were formed: • Group 1: The animals were administered (per os) a dose of 10 mg/kg of vehicle. • Group 2: The animals were administered (per os) a dose of 50 mg/kg of the test compound according to formula (I).
After oral administration of the compounds of formula (I) solubilized or suspended in CarboxyMethylCellulose (0.5%), Tween 20 (0.25%) and water as vehicle, the animals had access to commercial food (D04, UAR, Villemoisson/Orge, France) ad libitum. The diabetic state of the mice was verified by determining the blood glucose level before drug administration. Blood glucose and serum insulin levels were then determined 4 hrs after drug administration.
The determination of the blood glucose level was performed using a glucometer (Precision Q.I.D., Medisense, Abbot, ref. 212.62.31). […]
Changes in blood glucose and serum insulin of drug treated mice were expressed as a percentage of control (group 1: vehicle treated mice).

Chain of human GSK3 beta (P49841 whole entry): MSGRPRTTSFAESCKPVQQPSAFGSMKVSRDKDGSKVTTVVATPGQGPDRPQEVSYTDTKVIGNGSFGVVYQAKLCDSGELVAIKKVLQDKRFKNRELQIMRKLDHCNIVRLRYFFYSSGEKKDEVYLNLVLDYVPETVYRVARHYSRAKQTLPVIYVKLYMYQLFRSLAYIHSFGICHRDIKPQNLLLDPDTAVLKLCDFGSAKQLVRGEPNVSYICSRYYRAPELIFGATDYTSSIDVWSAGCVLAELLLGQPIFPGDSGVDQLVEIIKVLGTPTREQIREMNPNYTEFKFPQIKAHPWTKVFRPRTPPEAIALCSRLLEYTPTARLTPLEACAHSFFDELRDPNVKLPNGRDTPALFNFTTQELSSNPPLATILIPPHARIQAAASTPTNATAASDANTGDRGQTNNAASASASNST

Row | IC50 [1] | SMILES | blood glucose level reduced (percentage of vehicle control) ([2]; 4 hrs after drug administration, food intake after 20 h fasting) | insulin level reduced (percentage of vehicle control) ([2]; serum insulin 4 hrs after drug administration)
1 | < 10 µM | CC(C)OCCCNc1nccc(/C(C#N)=C2/Nc3ccccc3O2)n1 [Example 42, 1,3-benzoxazol-2(3H)-ylidene{2-[(3-isopropoxypropyl)amino]pyrimidin-4-yl}acetonitrile] | – | –
2 | < 10 µM | CN(C)CCCC(=O)Nc1nccc(/C(C#N)=C2/Nc3ccccc3O2)n1 [Example 89, N-{4-[1,3-benzoxazol-2(3H)-ylidene(cyano)methyl]-2-pyrimidinyl}-4-(dimethylamino)butanamide] | – | –
3 | < 10 µM | N#C/C(=C1\Nc2ccccc2O1)c1ccnc(NCc2cccnc2)n1 [Example 41, 1,3-benzoxazol-2(3H)-ylidene{2-[(pyridin-3-ylmethyl)amino]pyrimidin-4-yl}acetonitrile] | – | –
4 | < 10 µM | CC(=O)N1CCN(C(=O)CCCNc2nccc(/C(C#N)=C3\Nc4ccccc4O3)n2)CC1 [Example 70, (2-{[4-(4-acetyl-1-piperazinyl)-4-oxobutyl]amino}-4-pyrimidinyl)(1,3-benzoxazol-2(3H)-ylidene)ethanenitrile] | – | –
5 | < 10 µM | Cc1cc(/C(C#N)=C2/Nc3ccccc3O2)nc(NCCCn2cncn2)n1 [Example 47] | – | –

Further lines, the compound ahead of its results:

Row | SMILES | IC50 [1] | blood glucose level reduced (percentage of vehicle control) ([2]; 4 hrs after drug administration, food intake after 20 h fasting) | insulin level reduced (percentage of vehicle control) ([2]; serum insulin 4 hrs after drug administration)
6 | CCN1CCN(c2cc(/C(C#N)=C3/Nc4ccccc4O3)ncn2)CC1 [Example 49, 1,3-benzoxazol-2(3H)-ylidene[6-(4-ethylpiperazin-1-yl)pyrimidin-4-yl]acetonitrile] | < 10 µM | – | –
7 | N#C/C(=C1\Nc2ccccc2O1)c1ccnc(NC2CC2)n1 [Example 10, 1,3-benzoxazol-2(3H)-ylidene[2-(cyclopropylamino)pyrimidin-4-yl]acetonitrile] | < 10 µM | – | –
8 | N#C/C(=C1\Nc2ccccc2O1)c1ccnc(NCCCN2CCCC2=O)n1 [Example 5, 1,3-benzoxazol-2(3H)-ylidene(2-{[3-(2-oxopyrrolidin-1-yl)propyl]amino}pyrimidin-4-yl)acetonitrile] | – | about 25% | about 11%
